US20190284136A1, “INDOLINE DERIVATIVES” (ViiV HEALTHCARE UK LIMITED, priority 2016, published 2019)

Test system: HIV
Assay: Table 1 IC50 of the examples (assay method not given; patent concerns inhibiting HIV replication)
Type: cell-based
Conditions: Human immunodeficiency virus 1

## Cc1cc2c(c(-c3cc(F)c4c(c3C)CCCO4)c1[C@H](OC(C)(C)C)C(=O)O)CCN2C(=O)c1ccc2c(c1)OCC2 (atropisomer, axis not shown) [Example 178, (S)-2-(tert-Butoxy)-2-((R)-1-(2,3-Dihydrobenzofuran-6-carbonyl)-4-(8-fluoro-5-methylchroman-6-yl)-6-methylindolin-5-yl)acetic acid]
  IC50: 4 nM

## Cc1cc2c(c(-c3cc(F)c4c(c3C)CCCO4)c1[C@H](OC(C)(C)C)C(=O)O)CCN2C(=O)c1cccc2c1CCCO2 (atropisomer, axis not shown) [Example 169, (S)-2-(tert-Butoxy)-2-((R)-1-(chromane-5-carbonyl)-4-(8-fluoro-5-methylchroman-6-yl)-6-methylindolin-5-yl)acetic acid]
  IC50: 2 nM

## Cc1cc2c(c(-c3cc(F)c4c(c3C)CCCO4)c1[C@H](OC(C)(C)C)C(=O)O)CCN2C(=O)c1cccc(Cl)c1Cl (atropisomer, axis not shown) [Example 92, (S)-2-(tert-Butoxy)-2-((R)-1-(2,3-dichlorobenzoyl)-4-(8-fluoro-5-methylchroman-6-yl)-6-methylindolin-5-yl)acetic acid]
  IC50: 6 nM

## Cc1cc2c(c(-c3cc(F)c4c(c3C)CCCO4)c1[C@H](OC(C)(C)C)C(=O)O)CCN2C(=O)c1ccco1 (atropisomer, axis not shown) [Example 131, (S)-2-(tert-Butoxy)-2-((R)-4-(8-fluoro-5-methylchroman-6-yl)-1-(furan-2-carbonyl)-6-methylindolin-5-yl)acetic acid]
  IC50: 110 nM

## COc1ccc(F)c(C(=O)N2CCc3c2cc(C)c([C@H](OC(C)(C)C)C(=O)O)c3-c2cc(F)c3c(c2C)CCCO3)c1 (atropisomer, axis not shown) [Example 167, (S)-2-(tert-Butoxy)-2-((R)-1-(2-fluoro-5-methoxybenzoyl)-4-(8-fluoro-5-methylchroman-6-yl)-6-methylindolin-5-yl)acetic acid]
  IC50: 7 nM

## CNC(=O)c1cccc(C(=O)N2CCc3c2cc(C)c([C@H](OC(C)(C)C)C(=O)O)c3-c2cc(F)c3c(c2C)CCCO3)c1 (atropisomer, axis not shown) [Example 153, (S)-2-(tert-Butoxy)-2-((R)-4-(8-fluoro-5-methylchroman-6-yl)-6-methyl-1-(3-(methylcarbamoyl)benzoyl)indolin-5-yl)acetic acid]
  IC50: 125 nM

## Cc1cc2c(c(-c3cc(F)c4c(c3C)CCCO4)c1[C@H](OC(C)(C)C)C(=O)O)CCN2C(=O)c1cc(Cl)cc(C(F)(F)F)c1 (atropisomer, axis not shown) [Example 147, (S)-2-(tert-Butoxy)-2-((R)-1-(3-chloro-5-(trifluoromethyl)benzoyl)-4-(8-fluoro-5-methylchroman-6-yl)-6-methylindolin-5-yl)acetic acid]
  IC50: 17 nM

## COc1ccc(C(=O)N2CCc3c2cc(C)c([C@H](OC(C)(C)C)C(=O)O)c3-c2cc(F)c3c(c2C)CCCO3)c(F)c1 (atropisomer, axis not shown) [Example 85, (S)-2-(tert-Butoxy)-2-((R)-1-(2-fluoro-4-methoxybenzoyl)-4-(8-fluoro-5-methylchroman-6-yl)-6-methylindolin-5-yl)acetic acid]
  IC50: 6 nM

## Cc1ccc(-c2c3c(cc(C)c2[C@H](OC(C)(C)C)C(=O)O)N(C(=O)c2ccc(C)cc2C)CC3)cc1 [Example 9, (S)-2-(tert-Butoxy)-2-(1-(2,4-dimethylbenzoyl)-6-methyl-4-(p-tolyl)indolin-5-yl)acetic acid]
  IC50: 11 nM

## COc1ccc(C(=O)N2CCc3c2cc(C)c([C@H](OC(C)(C)C)C(=O)O)c3-c2cc(F)c3c(c2C)CCCO3)c(C)c1 (atropisomer, axis not shown) [Example 168, (S)-2-(tert-Butoxy)-2-((R)-4-(8-fluoro-5-methylchroman-6-yl)-1-(4-methoxy-2-methylbenzoyl)-6-methylindolin-5-yl)acetic acid]
  IC50: 13 nM

## COc1ccc(C(=O)N2CCc3c2cc(C)c([C@H](OC(C)(C)C)C(=O)O)c3-c2cc(F)c3c(c2C)CCCO3)cc1Cl (atropisomer, axis not shown) [Example 124, (S)-2-(tert-Butoxy)-2-((R)-1-(3-chloro-4-methoxybenzoyl)-4-(8-fluoro-5-methylchroman-6-yl)-6-methylindolin-5-yl)acetic acid]
  IC50: 3 nM

## Cc1ccc(-c2c3c(cc(C)c2[C@H](OC(C)(C)C)C(=O)O)N(C(=O)c2cccc(F)c2C)CC3)cc1 [Example 30, (S)-2-(tert-Butoxy)-2-(1-(3-fluoro-2-methylbenzov)-6-methyl-4-(p-tolyl)indolin-5-yl)acetic acid]
  IC50: 8 nM

## Cc1ccc(-c2c3c(cc(C)c2C(OC(C)(C)C)C(=O)O)N(Cc2ccc(F)c(F)c2)CCC3)cc1 (stereo not drawn) [Example 212, 2-(tert-Butoxy)-2-(1-(3,4-difluorobenzyl)-7-methyl-5-(p-tolyl)-1,2,3,4-tetrahydroquinolin-6-yl)acetic acid]
  IC50: 1030 nM

## COc1ccc(C(=O)N2CCc3c2cc(C)c([C@H](OC(C)(C)C)C(=O)O)c3-c2cc(F)c3c(c2C)CCCO3)c(Cl)c1 (atropisomer, axis not shown) [Example 128, (S)-2-(tert-Butoxy)-2-((R)-1-(2-chloro-4-methoxybenzoyl)-4-(8-fluoro-5-methylchroman-6-yl)-6-methylindolin-5-yl)acetic acid]
  IC50: 5 nM

## COc1c(C(=O)N2CCc3c2cc(C)c([C@H](OC(C)(C)C)C(=O)O)c3-c2cc(F)c3c(c2C)CCCO3)cccc1C(F)(F)F (atropisomer, axis not shown) [Example 180, (S)-2-(tert-Butoxy)-2-((R)-4-(8-Fluoro-5-methylchroman-6-yl)-1-(2-methoxy-3-(trifluoromethyl)benzoyl)-6-methylindolin-5-yl)acetic acid]
  IC50: 5 nM

## Cc1cc2c(c(-c3cc(F)c4c(c3C)CCCO4)c1[C@H](OC(C)(C)C)C(=O)O)CCN2C(=O)c1ccc(F)c(Cl)c1 (atropisomer, axis not shown) [Example 119, (S)-2-(tert-Butoxy)-2-((R)-1-(3-chloro-4-fluorobenzoyl)-4-(8-fluoro-5-methylchroman-6-yl)-6-methylindolin-5-yl)acetic acid]
  IC50: 3 nM

## COc1ccc(C(=O)N2CCc3c2cc(C)c([C@H](OC(C)(C)C)C(=O)O)c3-c2cc(F)c3c(c2C)CCCO3)c(C(F)(F)F)c1 (atropisomer, axis not shown) [Example 152, (S)-2-(tert-Butoxy)-2-((R)-4-(8-fluoro-5-methylchroman-6-yl)-1-(4-methoxy-2-(trifluoromethyl)benzoyl)-6-methylindolin-5-yl)acetic acid]
  IC50: 13 nM

## Cc1ccc(C(=O)N2CCc3c2cc(C)c([C@H](OC(C)(C)C)C(=O)O)c3-c2cc(F)c3c(c2C)CCCO3)c(Cl)c1 (atropisomer, axis not shown) [Example 137, (S)-2-(tert-Butoxy)-2-((R)-1-(2-chloro-4-methylbenzoyl)-4-(8-fluoro-5-methylchroman-6-yl)-6-methylindolin-5-yl)acetic acid]
  IC50: 4 nM

## Cc1ccc(-c2c3c(cc(C)c2C(OC(C)(C)C)C(=O)O)N(C(=O)N2CCCCC2)CC3)cc1 (stereo not drawn) [Example 6, 2-(tert-Butoxy)-2-(6-methyl-1-(piperidine-1-carbonyl)-4-(p-tolyl)indolin-5-yl)acetic acid]
  IC50: 369 nM

## COc1cc(C)ccc1C(=O)N1CCc2c1cc(C)c([C@H](OC(C)(C)C)C(=O)O)c2-c1cc(F)c2c(c1C)CCCO2 (atropisomer, axis not shown) [Example 159, (S)-2-(tert-Butoxy)-2-((R)-4-(8-fluoro-5-methylchroman-6-yl)-1-(2-methoxy-4-methylbenzoyl)-6-methylindolin-5-yl)acetic acid]
  IC50: 4 nM

## Cc1ccc(C(=O)N2CCc3c2cc(C)c([C@H](OC(C)(C)C)C(=O)O)c3-c2cc(C)c3c(c2C)CCCO3)cn1 (atropisomer, axis not shown) [Example 195, (S)-2-(tert-Butoxy)-2-((R)-4-(5,8-dimethylchroman-6-yl)-6-methyl-1-(6-methylnicotinoyl)indolin-5-yl)acetic acid]
  IC50: 121 nM

## Cc1ccc(-c2c3c(cc(C)c2[C@H](OC(C)(C)C)C(=O)O)N(C(=O)c2ccc(F)c(F)c2)CC3)cc1 [Example 42, (S)-2-(tert-Butoxy)-2-(1-(3,4-difluorobenzoyl)-6-methyl-4-(p-tolyl)indolin-5-yl)acetic acid]
  IC50: 5 nM

## Cc1cc2c(c(-c3cc(F)c4c(c3C)CCCO4)c1[C@H](OC(C)(C)C)C(=O)O)CCN2C(=O)C1=CCCCC1 (atropisomer, axis not shown) [Example 130, (S)-2-(tert-Butoxy)-2-((R)-1-(cyclohex-1-ene-1-carbonyl)-4-(8-fluoro-5-methylchroman-6-yl)-6-methylindolin-5-yl)acetic acid]
  IC50: 4 nM

## COc1cc(C(=O)N2CCc3c2cc(C)c([C@H](OC(C)(C)C)C(=O)O)c3-c2cc(F)c3c(c2C)CCCO3)ccc1Cl (atropisomer, axis not shown) [Example 123, (S)-2-(tert-Butoxy)-2-((R)-1-(4-chloro-3-methoxybenzoyl)-4-(8-fluoro-5-methylchroman-6-yl)-6-methylindolin-5-yl)acetic acid]
  IC50: 3 nM

## Cc1cc2c(c(-c3cc(F)c4c(c3C)CCCO4)c1[C@H](OC(C)(C)C)C(=O)O)CCN2C(=O)c1ccc(C(F)(F)F)cc1Cl (atropisomer, axis not shown) [Example 144, (S)-2-(tert-Butoxy)-2-((R)-1-(2-chloro-4-(trifluoromethyl)benzoyl)-4-(8-fluoro-5-methylchroman-6-yl)-6-methylindolin-5-yl)acetic acid]
  IC50: 26 nM

## Cc1ccc(-c2c3c(cc(C)c2C(OC(C)(C)C)C(=O)O)N(C(=O)C(=O)N2CCCCC2)CC3)cc1 (stereo not drawn) [Example 5, 2-(tert-Butoxy)-2-(6-methyl-1-(2-oxo-2-(piperidin-1-yl)acetyl)-4-(p-tolyl)indolin-5-yl)acetic acid]
  IC50: 343 nM

## Cc1cc(C(=O)N2CCc3c2cc(C)c([C@H](OC(C)(C)C)C(=O)O)c3-c2cc(F)c3c(c2C)CCCO3)ccc1F (atropisomer, axis not shown) [Example 48, (S)-2-(tert-Butoxy)-2-((R)-1-(4-fluoro-3-methylbenzoyl)-4-(8-fluoro-5-methylchroman-6-yl)-6-methylindolin-5-yl)acetic acid]
  IC50: 4 nM
